Laboratory results: patent US6562855B1, “Anaesthetic formulation comprising an NMDA-antagoinst and an alpha-2 adrenergic agonist” (priority 1999, dated 2003)
Entries after “also recorded” stand apart in the source; their conditions may differ.

Tests used:
[1] = test system: Male Sprague-Dawley rats; assay: Loss of righting reflex (sleep-time), hypnotic response to dexmedetomidine; type: in vivo, rat; conditions: for effect of co-administration on induction of tolerance to the hypnotic effect of dexmedetomidine: NO2-arginine 0.4-4 μg/kg/hr with dexmedetomidine 5 μg/kg/hr for 7 days (FIG. 5C); for effect of co-administration on development of tolerance to the hypnotic effect of dexmedetomidine: MK-801 100 and 400 μg/kg/hr co-administered with dexmedetomidine, challenge 100 μg/kg i.p., pumps removed 1 day prior to testing (FIG. 2C)
Description: (§1) The experimental protocol was approved by the Animal Care and Use Committee of the Veterans Affairs Palo Alto Health Care System. Male Sprague-Dawley rats, (B&K, Fremont, Calif.) weighing 250-350 g were used. The rats were stratified to match the distribution of the weights in the groups as closely as possible. All tests were performed between 10 a.m. and 4 p.m. The number of animals for each experiment is listed in the legends.
(§2) Rats were made tolerant to the anesthetic action of an alpha-2 agonist, dexmedetomidine, as described by Reid K et al (ibid). Briefly, rats were administered dexmedetomidine chronically using Alzet® osmotic minipumps (Model 2002 or 1007D, Alza, Palo Alto Calif.), which discharge their contents at a mean pumping rate of 0.48±0.02 μl/h. The pumps were inserted subcutaneously during isoflurane anesthesia in the dorsal thoracic region and loaded to deliver 5 μg/kg/h for 7 days to induce hypnotic tolerance and 10 μg/kg/h for 14 days to induce analgesic tolerance. […] When MK-801 or Nω-nitro-L-arginine (NO2-arginine) was co-administered with dexmedetomidine the MK-801 was included in the same pump. […] For the MK-801 and Nω-nitro-L-arginine (NO2-arginine) hypnotic experiments the pumps were removed one day prior to behavioral testing. In all other experiments the pumps were not removed prior to testing.
Hypnotic response to dexmedetomidine, was defined by the loss of the rat's righting reflex (LORR), and its duration was measured in minutes and referred to as sleep-time. The duration of the LORR was assessed as the time from the rat's inability to right itself when placed on its back until the time that it spontaneously reverted, completely, to the prone position. The hypnotic response test was performed between 10 a.m. and 6 p.m. as described in Reid et al, 1994.
(§3) The NOS inhibitor Nω-nitro-L-arginine (NO2-arginine) (Sigma) and the NMDA antagonists MK-801 (RBI) and ketamine (Sigma) were diluted in normal saline and acutely administered intraperitoneally or administered chronically by means of Alzet® osmotic minipumps (Model 2002 or 1007D, Alza, Palo Alto Calif.). These compounds were co-administered with dexmedetomidine by including both drugs in one pump.
(§4) LORR and tail flick data was analyzed using the analysis of variance (ANOVA) followed by post hoc Bonferroni tests or Dunnett's multiple comparison test or t-test where appropriate.

[2] = test system: Male Sprague-Dawley rats; assay: Tail flick response to a noxious thermal stimulus (analgesic action of dexmedetomidine); type: in vivo, rat; conditions: for effect of acute administration on the analgesic action of dexmedetomidine: tail flick 40 min later
Description: as §1, §2
Nociceptive response was assessed by the tail flick response to a noxious thermal stimulus 40 minutes after the administration of the dexmedetomidine challenge dose. A high intensity light beam focused on the tail and the time for the rat to move its tail out of the light was recorded as tail flick latency. This method has been described previously in the literature (Guo T Z et al, ibid). The latencies from three sites on the tail were averaged. A cut-off time of 10 sec was predetermined to prevent tissue damage. Baseline measurements consist of a set of three tail flick determinations at 2 min intervals.
as §3, §4

[3] = test system: NMDA receptor; conditions: 80% xenon; cultured hippocampal neurons; cited from earlier work
[4] = 20° C. and normal pressure; cited from earlier work
[5] = test system: Male Sprague-Dawley rats; conditions: previously demonstrated (Guo T Z et al); cited from earlier work
[6] = chronic exposure to dexmedetomidine for 14 days (10 μg/kg/h) (FIG. 1B)

N=C(NCCC[C@H](N)C(=O)O)N[N+](=O)[O-] [NO2-arginine, Nω-nitro-L-arginine]
effect of co-administration on induction of tolerance to the hypnotic effect of dexmedetomidine [1]: dose-dependently blocks the development of tolerance; also recorded: attenuated | effect of co-administration on induction of tolerance to the hypnotic effect of dexmedetomidine ([1]; listed as NO2-Arginine): blocked | effect of acute administration on dexmedetomidine-induced sleep time ([1]; NO2-arginine 15 min prior to dexmedetomidine 100 μg/kg i.p., drug naive rats (FIG. 5A)): dependently increases the dexmedetomidine-induced sleep time; also recorded: increased sleep time only at high doses | effect of acute administration on expression of tolerance to the hypnotic effect of dexmedetomidine ([1]; low doses of NO2-arginine acute, after 7-day dexmedetomidine, challenge 100 μg/kg (FIG. 5B)): does not reverse the tolerance; also recorded: did not reverse its expression | effect of acute administration on expression of tolerance to the hypnotic effect of dexmedetomidine ([1]; low doses of NO2-arginine acute, after 7-day dexmedetomidine, challenge 100 μg/kg (FIG. 5B), listed as NO2-Arginine): does not prevent the expression of tolerance | effect on dexmedetomidine-induced sleep time when given alone ([1]; treatment with just NO2-arginine 1.25 μg/kg/hr (FIG. 5C, last column)): does not affect the dexmedetomidine-induced sleep time; also recorded: did not affect the dexmedetomidine sleep time | effect on dexmedetomidine-induced analgesia in control animals ([2]; NO2-arginine 4 μg/kg/hr (FIG. 6C)): had no effect on dexmedetomidine-induced analgesia in control animals | effect on tail flick latency when administered alone ([2]; NO2-arginine 4 μg/kg/hr alone (data not shown)): had no effect on tail flick latency | effect of co-administration on analgesic tolerance to dexmedetomidine ([2]; NO2-arginine 4 μg/kg/hr with dexmedetomidine 10 μg/kg/hr for 14 days (FIG. 6C)): has no effect on analgesic tolerance; also recorded: had no effect on analgesic tolerance | effect of co-administration on analgesic tolerance to dexmedetomidine ([2]; NO2-arginine 8 μg/kg/hr with dexmedetomidine 10 μg/kg/hr for 14 days (FIG. 6C)): also ineffective; also recorded: ineffective at reversing tolerance | effect of acute administration on expression of tolerance to the analgesic action of dexmedetomidine ([2]; NO2-arginine 1 and 20 mg/kg i.p., dexmedetomidine 100 μg/kg i.p., tolerant rats (FIG. 6B)): does not reverse dexmedetomidine tolerance; also recorded: did not reverse the expression of tolerance | effect of acute administration on the analgesic action of dexmedetomidine ([2]; NO2-arginine i.p. 15 min prior to dexmedetomidine 50 μg/kg i.p., naïve rats (FIG. 6A)): has no effect on the analgesic action of dexmedetomidine; also recorded: did not affect the analgesic action of dexmedetomidine

[Xe] [xenon]
reduction of NMDA-activated currents [3]: up to 60% | concentration of xenon dissolved or dispersed in lipid emulsion [4]: 0.2 to 10 ml per ml of emulsion

Cc1cccc([C@H](C)c2cnc[nH]2)c1C [dexmedetomidine]
hypnotic effect of dexmedetomidine (duration of loss of righting reflex), dose response ([1]; rats chronically treated with dexmedetomidine 5 μg/kg/h for 7 days, even when large doses were given (FIG. 1A)): almost completely absent | hypnotic effect of dexmedetomidine (duration of loss of righting reflex), dose response ([1]; sham treated animals, challenge doses (FIG. 1A)): dose dependently increased | maximal analgesic effect of dexmedetomidine [2, 6]: reduced the maximal effect | shift of the analgesic dose response curve for dexmedetomidine [2, 6]: about 2 fold | dose of maximal efficacy of hypnotic action (biphasic dose response curve) [5]: around 300 μg/kg

C[C@]12N[C@H](Cc3ccccc31)c1ccccc12 [MK-801]
effect on dexmedetomidine-induced sleep time ([1]; MK-801 50 μg/kg acute): has no effect on dexmedetomidine-induced sleep time | effect of acute administration on dexmedetomidine-induced sleep time ([1]; MK-801 10-200 μg/kg, naïve animals, dexmedetomidine 100 μg/kg i.p. (FIG. 2A)): did not affect sleep time | effect of co-administration on development of tolerance to the hypnotic effect of dexmedetomidine [1]: blocks tolerance; also recorded: able to prevent the development of tolerance | effect of co-administration on development of tolerance to the hypnotic effect of dexmedetomidine ([1]; listed as dizolcipine): blocked | effect of acute administration on expression of tolerance to the hypnotic effect of dexmedetomidine ([1]; MK-801 acute, rats already tolerant (dexmedetomidine 5 μg/kg/h, 7 days) (FIG. 2B)): does not block dexmedetomidine-induced tolerance; also recorded: did not affect the expression of tolerance | effect of acute administration on expression of tolerance to the hypnotic effect of dexmedetomidine ([1]; MK-801 acute, rats already tolerant (dexmedetomidine 5 μg/kg/h, 7 days) (FIG. 2B), listed as dizolcipine): does not prevent the expression of tolerance | effect of acute low dose on expression of tolerance to the analgesic effect of dexmedetomidine ([2]; MK-801 50 μg/kg acute, rats tolerant after dexmedetomidine 10 μg/kg/hr for 14 days (FIG. 4B)): does not prevent the expression of tolerance; also recorded: did not reverse the expression of tolerance | effect of higher dose on the analgesic action of dexmedetomidine ([2]; MK-801 400 μg/kg acute, control animals): antagonized the analgesic action of dexmedetomidine | effect of acute higher dose on tolerance to the analgesic effect of dexmedetomidine ([2]; MK-801 400 μg/kg acute, tolerant animals): unable to reverse tolerance | effect of acute administration on the analgesic action of dexmedetomidine ([2]; MK-801 15 min before dexmedetomidine 50 μg/kg, naive rats (FIG. 4A)): suppressed its analgesic action at the two highest doses | effect of co-administration on development of analgesic tolerance to dexmedetomidine ([2]; MK-801 (0.4 μg/kg/hr as printed; maximum dose tolerated by the rat) with dexmedetomidine 10 μg/kg/hr for 14 days (FIG. 4C)): does not prevent the development of tolerance; also recorded: had no effect on the development of analgesic tolerance | effect of low dose on dexmedetomidine-induced analgesia ([2]; low dose of MK-801 (50 μg/kg) acute, control animals (FIG. 4B)): did not have any affect on dexmedetomidine-induced analgesia | effect on tail flick latency / dexmedetomidine's analgesic action when administered alone ([2]; same chronic dose of MK-801 alone (FIG. 4C)): does not affect dexmedetomidine's analgesic action; also recorded: had no effect on tail flick latency

CNC1(c2ccccc2Cl)CCCCC1=O (stereo not shown) [ketamine]
effect on dexmedetomidine sedation when administered alone ([1]; ketamine 400 μg/kg/hr alone (FIG. 3C)): without having an effect on dexmedetomidine sedation; also recorded: had no effect by itself | effect of co-administration on tolerance to the hypnotic (sedative) effect of dexmedetomidine ([1]; ketamine 400 μg/kg/hr concurrently with dexmedetomidine, challenge 150 μg/kg i.p., pumps left in place (FIG. 3C)): reverses tolerance; also recorded: did reverse tolerance | effect of acute administration on established tolerance to the hypnotic effect of dexmedetomidine ([1]; ketamine 10 or 20 mg/kg acute, tolerant rats (FIG. 3B)): does not block dexmedetomidine-induced tolerance; also recorded: could not reverse tolerance | effect of acute administration on dexmedetomidine-induced sleep time ([1]; ketamine acute, dexmedetomidine 150 μg/kg i.p. (FIG. 3A)): has no effect on the sleep time | effect of acute administration on dexmedetomidine-induced sleep time ([1]; ketamine acute, dexmedetomidine 150 μg/kg i.p. (FIG. 3A), listed as Ketamine): did not affect the sleep time
